Reference: PubChem BioAssay AID180 (DTP/NCI, 2004)
Values joined by “and” are separate entries in the source; they are usually repeats but may differ in a detail not shown here. Equal entries are not always repeated.

System: BDF1 mice, Adenocarcinoma 755 s.c., tumor weight T/C
Test: NCI In Vivo Anticancer Drug Screen. Data for tumor model Adenocarcinoma 755 (subcutaneous) in B6D2F1 (BDF1) mice
Settings: endpoint: mean tumor weight, higher = larger tumour
In short: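 Transplantable tumor implanted; mice dosed with compound or vehicle; survival or tumor size recorded; ratio of treated to vehicle control reported.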

[1] = dose: 121.0 mg/kg/injection, schedule: Q01DX011 (ip), vehicle: carboxymethylcellulose (CMC)
[2] = dose: 15.0 mg/kg/injection, schedule: Q01DX011 (ip), vehicle: carboxymethylcellulose (CMC)
[3] = dose: 25.0 mg/kg/injection, schedule: Q01DX011 (ip), vehicle: methylcellulose (MC)
[4] = dose: 50.0 mg/kg/injection, schedule: Q01DX011 (ip), vehicle: methylcellulose (MC)
[5] = dose: 100.0 mg/kg/injection, schedule: Q01DX011 (ip), vehicle: methylcellulose (MC)

Compound: O=C1N(Cl)C(=O)C(c2ccc(Cl)cc2)(c2ccc(Cl)cc2)N1Cl
- T/C (dose: 7.5 mg/kg/injection, schedule: Q#A X022 (ip), vehicle: saline): 161 % of control
- T/C (dose: 15.0 mg/kg/injection, schedule: Q01DX011 (ip), vehicle: saline): 100 % of control
- T/C (dose: 15.0 mg/kg/injection, schedule: Q#A X022 (ip), vehicle: saline): 107 % of control
- T/C (dose: 30.0 mg/kg/injection, schedule: Q01DX011 (ip), vehicle: saline): 52 % of control
- T/C (dose: 30.0 mg/kg/injection, schedule: Q#A X022 (ip), vehicle: saline): 67 % of control
- T/C (dose: 45.0 mg/kg/injection, schedule: Q03DX004 (ip), vehicle: saline): 73 % of control
- T/C (dose: 60.0 mg/kg/injection, schedule: Q01DX011 (ip), vehicle: saline): 62 % of control
- T/C (dose: 60.0 mg/kg/injection, schedule: Q#A X022 (ip), vehicle: saline): 28 % of control
- T/C (dose: 90.0 mg/kg/injection, schedule: Q03DX004 (ip), vehicle: saline): 78 % of control
- T/C (dose: 120.0 mg/kg/injection, schedule: Q01DX011 (ip), vehicle: saline): 23 % of control and 28 % of control
- T/C (dose: 180.0 mg/kg/injection, schedule: Q03DX004 (ip), vehicle: saline): 61 % of control
- T/C (dose: 240.0 mg/kg/injection, schedule: Q01DX011 (ip), vehicle: saline): 15 % of control
- T/C (dose: 360.0 mg/kg/injection, schedule: Q03DX004 (ip), vehicle: saline): 36 % of control
- T/C (dose: 480.0 mg/kg/injection, schedule: Q01DX011 (ip), vehicle: saline): 16 % of control

Compound: CC(=O)C(CCC(=O)O)(CCC(=O)O)c1ccccc1
- T/C (dose: 30.0 mg/kg/injection, schedule: Q01DX011 (ip), vehicle: other): 87 % of control
- T/C (dose: 60.0 mg/kg/injection, schedule: Q01DX011 (ip), vehicle: other): 71 % of control
- T/C (dose: 120.0 mg/kg/injection, schedule: Q01DX011 (ip), vehicle: other): 117 % of control
- T/C (dose: 240.0 mg/kg/injection, schedule: Q01DX011 (ip), vehicle: other): 97 % of control

Compound: NNC(=O)c1ccncc1
- T/C (dose: 15.13 mg/kg/injection, schedule: Q01DX011 (ip), vehicle: carboxymethylcellulose (CMC)): 116 % of control
- T/C (dose: 17.62 mg/kg/injection, schedule: Q01DX011 (ip), vehicle: carboxymethylcellulose (CMC)): 160 % of control
- T/C (dose: 19.25 mg/kg/injection, schedule: Q01DX011 (ip), vehicle: carboxymethylcellulose (CMC)): 112 % of control
- T/C (dose: 30.25 mg/kg/injection, schedule: Q01DX011 (ip), vehicle: carboxymethylcellulose (CMC)): 109 % of control
- T/C (dose: 38.5 mg/kg/injection, schedule: Q01DX011 (ip), vehicle: carboxymethylcellulose (CMC)): 78 % of control
- T/C (dose: 60.5 mg/kg/injection, schedule: Q01DX011 (ip), vehicle: carboxymethylcellulose (CMC)): 121 % of control
- T/C (dose: 70.5 mg/kg/injection, schedule: Q01DX011 (ip), vehicle: carboxymethylcellulose (CMC)): 178 % of control
- T/C (dose: 77.0 mg/kg/injection, schedule: Q01DX011 (ip), vehicle: carboxymethylcellulose (CMC)): 122 % of control
- T/C [1]: 100 % of control
- T/C (dose: 141.0 mg/kg/injection, schedule: Q01DX011 (ip), vehicle: carboxymethylcellulose (CMC)): 202 % of control

Compound: O=C([O][Hg][CH2]C1CC(O)CC([CH2][Hg][O]C(=O)c2ccccc2)O1)c1ccccc1 (configuration not stated)
- T/C (dose: 25.0 mg/kg/injection, schedule: Q01DX011 (ip), vehicle: carboxymethylcellulose (CMC)): 83 % of control
- T/C (dose: 50.0 mg/kg/injection, schedule: Q01DX011 (ip), vehicle: carboxymethylcellulose (CMC)): 33 % of control

Compound: CCC(=O)NC
- T/C (dose: 45.0 mg/kg/injection, schedule: Q01DX011 (ip), vehicle: saline): 107 % of control
- T/C (dose: 175.0 mg/kg/injection, schedule: Q01DX011 (ip), vehicle: saline): 81 % of control
- T/C (dose: 350.0 mg/kg/injection, schedule: Q01DX011 (ip), vehicle: saline): 118 % of control
- T/C (dose: 625.0 mg/kg/injection, schedule: Q#A X022 (ip), vehicle: other): 6 % of control
- T/C (dose: 1000.0 mg/kg/injection, schedule: Q01DX011 (ip), vehicle: other): 11 % of control
- T/C (dose: 1500.0 mg/kg/injection, schedule: Q01DX011 (ip), vehicle: other): 6 % of control
- T/C (dose: 1560.0 mg/kg/injection, schedule: Q01DX011 (ip), vehicle: other): 49 % of control
- T/C (dose: 1750.0 mg/kg/injection, schedule: Q01DX011 (ip), vehicle: other): 36 % of control

Compound: O=c1[nH]c(=O)n(C2CC(O)C(CO)O2)cc1F (configuration not stated)
- T/C (dose: 13.12 mg/kg/injection, schedule: Q01DX011 (ip), vehicle: carboxymethylcellulose (CMC)): 124 % of control
- T/C [2]: 72 % of control
- T/C (dose: 19.0 mg/kg/injection, schedule: Q01DX011 (ip), vehicle: other): 66 % of control
- T/C [3]: 54 % of control
- T/C (dose: 26.25 mg/kg/injection, schedule: Q01DX011 (ip), vehicle: carboxymethylcellulose (CMC)): 68 % of control
- T/C (dose: 30.0 mg/kg/injection, schedule: Q01DX006 (ip), vehicle: other): 80 % of control
- T/C (dose: 30.0 mg/kg/injection, schedule: Q01DX011 (ip), vehicle: carboxymethylcellulose (CMC)): 37 % of control
- T/C (dose: 37.5 mg/kg/injection, schedule: Q01DX011 (ip), vehicle: other): 28 % of control
- T/C [4]: 25 % of control
- T/C (dose: 52.5 mg/kg/injection, schedule: Q01DX011 (ip), vehicle: carboxymethylcellulose (CMC)): 59 % of control
- T/C (dose: 60.0 mg/kg/injection, schedule: Q01DX006 (ip), vehicle: other): 37 % of control
- T/C (dose: 60.0 mg/kg/injection, schedule: Q01DX011 (ip), vehicle: carboxymethylcellulose (CMC)): 14 % of control
- T/C (dose: 75.0 mg/kg/injection, schedule: Q01DX011 (ip), vehicle: other): 3 % of control
- T/C [5]: 6 % of control
- T/C (dose: 105.0 mg/kg/injection, schedule: Q01DX011 (ip), vehicle: carboxymethylcellulose (CMC)): 54 % of control
- T/C (dose: 120.0 mg/kg/injection, schedule: Q01DX006 (ip), vehicle: other): 29 % of control
- T/C [1]: 3 % of control
- T/C (dose: 240.0 mg/kg/injection, schedule: Q01DX006 (ip), vehicle: other): 6 % of control
- T/C (dose: 480.0 mg/kg/injection, schedule: Q01DX006 (ip), vehicle: other): 2 % of control

Compound: CCCCn1cnc2c(SCc3ccc(Br)cc3)nc(N)nc21
- T/C (dose: 12.5 mg/kg/injection, schedule: Q01DX011 (ip), vehicle: methylcellulose (MC)): 47 % of control
- T/C [3]: 66 % of control
- T/C [4]: 82 % of control
- T/C [5]: 49 % of control

Compound: CCc1c(Cl)nc(N)nc1Nc1ccccc1C
- T/C (dose: 15.0 mg/kg/injection, schedule: Q01DX011 (ip), vehicle: methylcellulose (MC)): 115 % of control
- T/C (dose: 62.0 mg/kg/injection, schedule: Q01DX011 (ip), vehicle: methylcellulose (MC)): 88 % of control
- T/C (dose: 125.0 mg/kg/injection, schedule: Q01DX011 (ip), vehicle: methylcellulose (MC)): 114 % of control
- T/C (dose: 250.0 mg/kg/injection, schedule: Q01DX011 (ip), vehicle: methylcellulose (MC)): 94 % of control

Compound: Nc1nc(SCc2ccccc2)c2ncn(C3OC(CO)C(O)C3O)c2n1 (configuration not stated)
- T/C [3]: 10 % of control
- T/C [4]: 7 % of control
- T/C (dose: 75.0 mg/kg/injection, schedule: Q01DX011 (ip), vehicle: methylcellulose (MC)): 8 % of control
- T/C [5]: 6 % of control

Compound: CCCCSc1ncnc2nc[nH]c12
- T/C (dose: 0.25 mg/kg/injection, schedule: Q01DX011 (ip), vehicle: carboxymethylcellulose (CMC)): 119 % of control
- T/C (dose: 1.0 mg/kg/injection, schedule: Q01DX011 (ip), vehicle: carboxymethylcellulose (CMC)): 121 % of control
- T/C (dose: 4.0 mg/kg/injection, schedule: Q01DX011 (ip), vehicle: carboxymethylcellulose (CMC)): 62 % of control
- T/C [2]: 4 % of control and 9 % of control
- T/C (dose: 62.0 mg/kg/injection, schedule: Q01DX011 (ip), vehicle: carboxymethylcellulose (CMC)): 4 % of control

Compound: CC(C)C(Sc1nc(N)nc2nc[nH]c12)C(=O)O (configuration not stated)
- T/C (dose: 23.7 mg/kg/injection, schedule: Q01DX011 (ip), vehicle: carboxymethylcellulose (CMC)): 113 % of control
- T/C (dose: 47.5 mg/kg/injection, schedule: Q01DX011 (ip), vehicle: carboxymethylcellulose (CMC)): 81 % of control
- T/C (dose: 95.0 mg/kg/injection, schedule: Q01DX011 (ip), vehicle: carboxymethylcellulose (CMC)): 83 % of control
- T/C (dose: 190.0 mg/kg/injection, schedule: Q01DX011 (ip), vehicle: carboxymethylcellulose (CMC)): 64 % of control

Compound: Clc1ncnc2c1ncn2C1CCCCO1 (configuration not stated)
- T/C (dose: 31.0 mg/kg/injection, schedule: Q01DX011 (ip), vehicle: other): 72 % of control
- T/C (dose: 62.0 mg/kg/injection, schedule: Q01DX011 (ip), vehicle: other): 7 % of control

Compound: COc1cccc2c1cc([N+](=O)[O-])c1c(C(=O)O)cc3c(c12)OCO3
- T/C (dose: 50.0 mg/kg/injection, schedule: Q01DX011 (ip), vehicle: other): 59 % of control
- T/C (dose: 100.0 mg/kg/injection, schedule: Q01DX011 (ip), vehicle: other): 43 % of control
